Here are results for 2 compounds from patent publication US20080166432A1, “Biotherapeutics for Mitigation of Health Disorders from Terminalia Arjuna” (Avestha Gengraine Technologies Pvt. Ltd., priority 2003, published 2008).

For assay [1], the system named is Bacillus cereus ATCC-11778. The assay is described as follows: Antibacterial assay, agar streak method. It is filed as cell-based. Set-up: key: +++: abundant growth; ++: growth; +: less growth; −: no growth. The conditions noted are these: B. cereus. From the text:
(§1) Testing of anti-microbial potential was done against following bacterial strains (Gram negative: Escherichia coli ATCC-10536, Pseudomonas aeruginosa ATCC-9027, Klebsiella pneumoniea ATCC-10031, Bordetella bronchiseptica ATCC-4617; Gram Positive: Staphylococcus aureus ATCC-29737, Streptococcus fecalis ATCC-8043, Micrococcus luteus ATCC-9341, Bacillus subtilis ATCC-6633, Bacillus cereus ATCC-11778, Bacillus pumilus ATCC-14884, Staphylococcus epidermidis ATCC-6358) were selected from the microorganisms given in United states Pharmacopoeia (2000), British Pharmacopoeia (1993) and Indian Pharmacopoeia (1996) for anti-microbial assays.
(§2) A stock of 100 mg/ml of Ethyl acetate, Acetone, Ethanol, Methanol and Water successive extract from Terminalia arjuna bark and direct ethanol and successive water extracts from Terminalia arjuna fruit was dissolved in DMSO. To determine the antibacterial potential extracts at a concentration of 5 mg/ml and 1 mg/ml were added to 30 ml of luke warm Luria Bertaini agar medium. After the medium was solidified, overnight grown 11 bacterial strains mentioned were taken in loop and streaked on the medium. The plates were incubated at 37° C. for 24 hrs after which the bacterial growth was monitored. Suitable controls were maintained with the extracts and the microorganisms. Luria Bertaini agar medium with and without 1.5% DMSO were used as negative control set, Ciprofloxacin (2 μg/ml) served as positive control.

The subject of assay [2] is Bacillus pumilus ATCC-14884. Put plainly: Antibacterial assay, agar streak method. Type of assay: cell-based. Set-up: key: +++: abundant growth; ++: growth; +: less growth; −: no growth. As to conditions: B. pumilus.
Source text: as §1, §2

In assay [3] the test system is Bacillus subtilis ATCC-6633. Put plainly: Antibacterial assay, agar streak method. It is filed as cell-based. Set-up: key: +++: abundant growth; ++: growth; +: less growth; −: no growth. As to conditions: B. subtilis; LB + Ciprofloxacin 2 μg/ml.
Source text: as §1, §2

In assay [4] the test system is Bordetella bronchiseptica ATCC-4617. The assay is described as follows: Antibacterial assay, agar streak method. It is filed as cell-based. Also on record: key: +++: abundant growth; ++: growth; +: less growth; −: no growth. The conditions noted are these: B. bronchiseptica.
Source text: as §1, §2

Assay [5] relates to Escherichia coli ATCC-10536. Put plainly: Antibacterial assay, agar streak method. Type of assay: cell-based. Also on record: key: +++: abundant growth; ++: growth; +: less growth; −: no growth. As to conditions: E. coli.
Source text: as §1, §2

For assay [6], the system named is Klebsiella pneumoniea ATCC-10031. Put plainly: Antibacterial assay, agar streak method. Type of assay: cell-based. Also on record: key: +++: abundant growth; ++: growth; +: less growth; −: no growth. As to conditions: K. pneumoniea.
Source text: as §1, §2

Assay [7] deals with Micrococcus luteus ATCC-9341. The assay is described as follows: Antibacterial assay, agar streak method. It is filed as cell-based. Also on record: key: +++: abundant growth; ++: growth; +: less growth; −: no growth. The conditions noted are these: M. luteus.
Source text: as §1, §2

Assay [8] concerns Pseudomonas aeruginosa ATCC-9027. The assay is described as follows: Antibacterial assay, agar streak method. Set-up: key: +++: abundant growth; ++: growth; +: less growth; −: no growth. The conditions noted are these: P. aeruginosa. It is filed as cell-based.
Source text: as §1, §2

Assay [9] has as its system Staphylococcus aureus ATCC-29737. Put plainly: Antibacterial assay, agar streak method. Type of assay: cell-based. Set-up: key: +++: abundant growth; ++: growth; +: less growth; −: no growth. The conditions noted are these: S. aureus.
Source text: as §1, §2

Assay [10] has as its system Staphylococcus epidermidis ATCC-6358. Put plainly: Antibacterial assay, agar streak method. It is filed as cell-based. Set-up: key: +++: abundant growth; ++: growth; +: less growth; −: no growth. The conditions noted are these: S. epidermidis.
Source text: as §1, §2

Assay [11] relates to Streptococcus fecalis ATCC-8043. The assay is described as follows: Antibacterial assay, agar streak method. Also on record: key: +++: abundant growth; ++: growth; +: less growth; −: no growth. Type of assay: cell-based. The conditions noted are these: S. fecalis.
Source text: as §1, §2

Assay [12] in a line: DPPH scavenging effect (antioxidant assay). It is filed as physicochemical. As to conditions: T. arjuna extracts from different plant parts. From the text: This method is based on the reduction of DPPH, a stable free radical. Due to the odd electron of DPPH, it gives a strong absorption maximum at 517 nm by visible spectroscopy (purple color). As the odd electron of the radical becomes paired off in the presence of hydrogen donor, that is, a free-radical scavenging antioxidant, the absorption strength is decreased, and the resulting de-coloration is stoichiometric with respect to the number of electrons captured. This reaction has widely been used to evaluate the anti-oxidative activity of food and plant extracts.
Reactions were performed in 1.25 ml of methanol containing 0.5 mM freshly made DPPH and various amounts of the extract. Reaction mixtures were incubated at 37° C. for 30 min, and the absorbance at 517 nm was measured. This assay was done in triplicate.
Oxidant (DPPH) inhibitory activity (%)={(A517Control−A517 Sample)/A517Control}×100
IC50 is defined as the amount of extract required for 50% inhibition in the levels of free radical. Table 25 gives the IC50 values of Terminalia arjuna bark and fruit extracts.
(The DPPH test is a chemical assay of radical scavenging.)

Another assay relates to endothelial cells. The conditions noted are these: ascorbate pretreatment; measured as citrulline formation and cGMP accumulation; cited from earlier work.
[13] abbreviates: LB + Ciprofloxacin 2 μg/ml (Table 27).

For `O=C(O)c1cn(C2CC2)c2cc(N3CCNCC3)c(F)cc2c1=O` [Ciprofloxacin], the bacterial growth result in [1] (LB + Ciprofloxacin 2 μg/ml), in [1] (setting [13]), in assay [2] (LB + Ciprofloxacin 2 μg/ml), in [2] (setting [13]), in assay [3] and in assay [4] (LB + Ciprofloxacin 2 μg/ml) was “−” throughout. The bacterial growth result in [4] (setting [13]), in assay [5] (LB + Ciprofloxacin 2 μg/ml), in [5] (setting [13]), in assay [6] (LB + Ciprofloxacin 2 μg/ml), in [6] (setting [13]) and in assay [7] (LB + Ciprofloxacin 2 μg/ml) was “−” in each case. Besides, the bacterial growth entry in assay [7] (setting [13]), in assay [8] (LB + Ciprofloxacin 2 μg/ml), in assay [8] (setting [13]), in assay [9] (LB + Ciprofloxacin 2 μg/ml), in assay [9] (setting [13]) and in assay [10] (LB + Ciprofloxacin 2 μg/ml) was “−” in each case. Besides, the bacterial growth result in [10] (setting [13]), in [11] (LB + Ciprofloxacin 2 μg/ml) and in assay [11] (setting [13]) was “−” throughout.

With `O=C1O[C@H]([C@@H](O)CO)C(O)=C1O` [Ascorbate, ascorbic acid], in [12], the “IC50 values of antioxidation potential” value amounted to 26 µg/mL. The “increase of the cellular production of NO” value in the assay on endothelial cells was 3 fold.
